Experimental data reported in article PMC12396409, “Screening and hit evaluation of a microbial metabolite library against the pathogenic Plasmodium falciparum and Toxoplasma gondii parasites” (International Journal for Parasitology: Drugs and Drug …, 2025).
Read-outs that look alike come from different tables or passages of the source.

Assays:
[1] = test system: P. falciparum 3D7 parasites; experiment: P. falciparum growth inhibition assay, 2-cycle (120 h treatment), delayed-death screen and dose-response; format: cell-based, Plasmodium falciparum; details: for activity at 2 µg/mL: Plasmodium falciparum
[2] = test system: P. falciparum 3D7 parasites; experiment: P. falciparum growth inhibition assay, 1-cycle (72 h treatment), SYBR DNA staining (library screen at 2 μg/mL and dose-response); format: cell-based, Plasmodium falciparum; details: for activity at 2 µg/mL: Plasmodium falciparum
[3] = test system: T. gondii RH strain (RH-Tub-eYFP) tachyzoites; experiment: microbe, parasite or virus in culture; format: cell-based, Toxoplasma gondii; details: for percent parasite growth at 2 µg/mL: Toxoplasma gondii
[4] = library screen at 2 μg/mL, 72 h, % growth, replicate 1
[5] = library screen at 2 μg/mL, 72 h, % growth, replicate 2
[6] = P. falciparum 3D7, 120 h, parasite screen at 2 μg/mL, % growth, replicate 1
[7] = P. falciparum 3D7, 120 h, parasite screen at 2 μg/mL, % growth, replicate 2
[8] = P. falciparum 3D7, 72 h, parasite screen at 2 μg/mL, % growth, replicate 1
[9] = P. falciparum 3D7, 72 h, parasite screen at 2 μg/mL, % growth, replicate 2
[10] = T. gondii, 72 h, parasite screen at 2 μg/mL, % growth, replicate 1
[11] = T. gondii, 72 h, parasite screen at 2 μg/mL, % growth, replicate 2

CC[C@@H]1/C=C(\C)C[C@H](C)C[C@H](OC)[C@H]2O[C@@](O)(C(=O)C(=O)N3CCCC[C@H]3C(=O)O[C@H](/C(C)=C/[C@@H]3CC[C@@H](O)[C@H](OC)C3)[C@H](C)[C@@H](O)CC1=O)[C@H](C)C[C@@H]2OC [Ascomycin]
activity at 2 µg/mL ([1]; 3D7, library screen at 2 μg/mL, 120 h, % growth, replicate 1, read-out: Pf_120h_%Growth_Rep1): 70.5% | activity at 2 µg/mL ([1]; 3D7, library screen at 2 μg/mL, 120 h, % growth, replicate 2, read-out: Pf_120h_%Growth_Rep2): 40.4% | activity at 2 µg/mL ([2]; 3D7, library screen at 2 μg/mL, 72 h, % growth, replicate 1, read-out: Pf_72h_%Growth_Rep1): 44.9% | activity at 2 µg/mL ([2]; 3D7, library screen at 2 μg/mL, 72 h, % growth, replicate 2, read-out: Pf_72h_%Growth_Rep2): 50.6% | percent parasite growth at 2 µg/mL ([3]; 72 h, library screen at 2 μg/mL, 72 h, % growth, replicate 1, read-out: Tg_72h_%Growth_Rep1): 79.9% | percent parasite growth at 2 µg/mL ([3]; 72 h, library screen at 2 μg/mL, 72 h, % growth, replicate 2, read-out: Tg_72h_%Growth_Rep2): 79.4%

CC1=C[C@H]2O[C@@H]3[C@H](O)C[C@](C)([C@@]2(CO)[C@H](O)C1=O)[C@]31CO1 [Deoxynivalenol]
Pf_120h_%Growth_Rep1 ([1]; library screen at 2 μg/mL, 120 h, % growth, replicate 1): 19.31% | Pf_120h_%Growth_Rep2 ([1]; library screen at 2 μg/mL, 120 h, % growth, replicate 2): 5.93% | Pf_72h_%Growth_Rep1 [2, 4]: -0.53% | Pf_72h_%Growth_Rep2 [2, 5]: -5.17% | Tg_72h_%Growth_Rep1 [3, 4]: -0.04% | Tg_72h_%Growth_Rep2 [3, 5]: 0.56%

CO[C@H]1C[C@@H]2CC[C@@H](C)[C@@](O)(O2)C(=O)C(=O)N2CCCC[C@H]2C(=O)O[C@H]([C@H](C)C[C@@H]2CC[C@@H](OP(C)(C)=O)[C@H](OC)C2)CC(=O)[C@H](C)/C=C(\C)[C@@H](O)[C@@H](OC)C(=O)[C@H](C)C[C@H](C)/C=C/C=C/C=C/1C [Ridaforolimus]
activity at 2 µg/mL ([1]; 3D7, 120 h, P. falciparum, 120 h, parasite screen 2 μg/mL, % growth, replicate 1, read-out: Pf_120h_%Growth_Rep1): 75.1% | activity at 2 µg/mL ([1]; 3D7, 120 h, P. falciparum, 120 h, parasite screen 2 μg/mL, % growth, replicate 2, read-out: Pf_120h_%Growth_Rep2): 55.3% | activity at 2 µg/mL ([2]; 3D7, 72 h, P. falciparum, 72 h, parasite screen 2 μg/mL, % growth, replicate 1, read-out: Pf_72h_%Growth_Rep1): 68.5% | activity at 2 µg/mL ([2]; 3D7, 72 h, P. falciparum, 72 h, parasite screen 2 μg/mL, % growth, replicate 2, read-out: Pf_72h_%Growth_Rep2): 69.8% | percent parasite growth at 2 µg/mL ([3]; 72 h, T. gondii, 72 h, parasite screen 2 μg/mL, % growth, replicate 1, read-out: Tg_72h_%Growth_Rep1): 128% | percent parasite growth at 2 µg/mL ([3]; 72 h, T. gondii, 72 h, parasite screen 2 μg/mL, % growth, replicate 2, read-out: Tg_72h_%Growth_Rep2): 84.7%

COc1ccc2c(c1)N(C(C)=O)[C@H]1[C@@H]3CO[C@H](C)[C@@H]4CN5CC[C@]21[C@@H]5C[C@H]34 [Strychnospermine]
Pf_120h_%Growth_Rep1 ([1]; P. falciparum, 120 h, parasite screen 2 μg/mL, % growth, replicate 1): 157.71% | Pf_120h_%Growth_Rep2 ([1]; P. falciparum, 120 h, parasite screen 2 μg/mL, % growth, replicate 2): 76.73% | Pf_72h_%Growth_Rep1 ([2]; P. falciparum, 72 h, parasite screen 2 μg/mL, % growth, replicate 1): 72.81% | Pf_72h_%Growth_Rep2 ([2]; P. falciparum, 72 h, parasite screen 2 μg/mL, % growth, replicate 2): 85.90% | Tg_72h_%Growth_Rep1 ([3]; T. gondii, 72 h, parasite screen 2 μg/mL, % growth, replicate 1): 96.72% | Tg_72h_%Growth_Rep2 ([3]; T. gondii, 72 h, parasite screen 2 μg/mL, % growth, replicate 2): 111.43%

CC(C)C(=O)N[C@H](CO)[C@H](O)c1ccc([N+](=O)[O-])cc1 [Corynecin III]
Pf_120h_%Growth_Rep1 ([1]; P. falciparum, 120 h, screen at 2 μg/mL, replicate 1): 87.60% | Pf_120h_%Growth_Rep2 ([1]; P. falciparum, 120 h, screen at 2 μg/mL, replicate 2): 90.07% | Pf_72h_%Growth_Rep1 ([2]; P. falciparum, 72 h, screen at 2 μg/mL, replicate 1): 86.99% | Pf_72h_%Growth_Rep2 ([2]; P. falciparum, 72 h, screen at 2 μg/mL, replicate 2): 97.15% | Tg_72h_%Growth_Rep1 ([3]; T. gondii, 72 h, screen at 2 μg/mL, replicate 1): 93.46% | Tg_72h_%Growth_Rep2 ([3]; T. gondii, 72 h, screen at 2 μg/mL, replicate 2): 102.63%

OC[C@H]1O[C@@H](n2cnc3c2N=CNC[C@H]3O)C[C@@H]1O [BIA-P1273]
Pf_120h_%Growth_Rep1 [1, 6]: 57.41% | Pf_120h_%Growth_Rep2 [1, 7]: 140.11% | Pf_72h_%Growth_Rep1 [2, 8]: 69.65% | Pf_72h_%Growth_Rep2 [2, 9]: 72.25% | Tg_72h_%Growth_Rep1 [3, 10]: 120.62% | Tg_72h_%Growth_Rep2 [3, 11]: 91.66%

CO[C@H]1C[C@H](O[C@H]2[C@H](C)O[C@@H](O[C@@H]3/C(C)=C/C[C@@H]4C[C@@H](C[C@]5(C=C[C@H](C)[C@@H](C(C)C)O5)O4)OC(=O)[C@@H]4C=C(C)[C@@H](O)[C@H]5OC/C(=C\C=C\[C@@H]3C)[C@]54O)C[C@@H]2OC)O[C@@H](C)[C@H]1NC(C)=O [Eprinomectin B1b]
Pf_120h_%Growth_Rep1 [1]: 33.01% | Pf_120h_%Growth_Rep2 [1]: 22.71% | Pf_72h_%Growth_Rep1 [2]: 56.32% | Pf_72h_%Growth_Rep2 [2]: 35.21% | Tg_72h_%Growth_Rep1 [3]: 157.07% | Tg_72h_%Growth_Rep2 [3]: 101.19%

CCC1(C2OC(C3OC(O)(CO)C(C)CC3C)CC2C)CCC(C2(C)CCC3(CC(O)C(C)C(C(C)C(OC)C(C)C(=O)O)O3)O2)O1 (stereo not drawn) [BIA-M1303]
Pf_120h_%Growth_Rep1 [1, 6]: 3.05% | Pf_120h_%Growth_Rep2 [1, 7]: 14.66% | Pf_72h_%Growth_Rep1 [2, 8]: 1.29% | Pf_72h_%Growth_Rep2 [2, 9]: -3.52% | Tg_72h_%Growth_Rep1 [3, 10]: 1.84% | Tg_72h_%Growth_Rep2 [3, 11]: 2.05%
